Experimental data as given in US6071919A, “Zwitterionic compositions and methods as biological response modifiers” (priority 1998, dated 2000).
“Also recorded” adds a separate entry of the source.

How the values were obtained:
alkaline phosphatase = test: Decrease of alkaline phosphatase in mammals; assay type: in vivo
From the text: It is discovered that zwitterionic compounds, such as HEPES, decrease the production of alkaline phosphatase in mammals.

[1] = tested on: serum alkaline phosphatase; test: Example Six: serum alkaline phosphatase in healthy canines; assay type: in vivo, canine; settings: up to 500 mg/kg, five canines
Protocol: Five healthy canines were administered up to 500 mg/kg of HEPES.

cancer = test: Treatment of cancer patients with HEPES alone; assay type: in vivo, human; settings: 300 mg/kg to 1000 mg/kg daily
[2] = Treatment of rheumatoid arthritis patients with HEPES alone; assay type: in vivo, human; settings: 300 mg/kg to 1000 mg/kg daily
Protocol: (§1) To date, more than twenty-five patients have been treated with 300 mg/kg to 1000 mg/kg HEPES daily (no other agents or additional compositions).

[3] = Treatment of myasthenia gravis patients with HEPES alone; assay type: in vivo, human; settings: 300 mg/kg to 1000 mg/kg daily
Protocol: as §1

[4] = tested on: bone marrow / extramedullary hematopoiesis; test: Example Seven: bone marrow and liver biopsy in healthy beagle dogs; assay type: in vivo; settings: 18 mg/kg i.v. one week, then 40 mg/kg one week
Protocol: Five healthy beagle dogs (males and females) were given 18 mg/kg intravenously of zwitterionic piperazine compound (HEPES) for one week. The dose was increased to 40 mg/kg for one week. […] This is also consistent with immune stimulating effect.

[5] = Example Eight: patient with organophosphate induced polyneuropathy; assay type: in vivo, human
Protocol: A person with organophosphate induced polyneuropathy (such as found in Agent Orange toxicity and/or Gulf War Syndrome) had significant numbness in both legs, decreased sensation in both hands, and decreased proprioception was given 8 mg/kg orally of zwitterionic piperazine (HEPES) for two weeks.

Herpes Zoster = test: Example Nine: patient with painful Herpes Zoster; assay type: in vivo, human; settings: 1000 mg i.v. daily
Protocol: A person with painful Herpes Zoster unresponsive to conventional treatment was given 1000 mg intravenously of zwitterionic piperazine daily.

HIV = test: Example Ten: patient with HIV infection and HIV associated polyneuropathy; assay type: in vivo; settings: 5000 mg i.v. daily, after thirty days
Protocol: A person with documented HIV infection had HIV associated polyneuropathy. They could not raise their legs without assistance. They were given 5000 mg intravenously of zwitterionic piperazine (HEPES) daily for thirty days. […] Their cluster determinates had risen and sensation and proprioception were improved.

hepatitis B = test: Example Eleven: patient with chronic hepatitis B infection; assay type: in vivo, human; settings: 5000 mg i.v., after thirty days
From the text: After thirty days, their bilirubin fell to 3.0 and other liver enzymes were reduced by 25 percent or more.

[6] = tested on: beta-hemolytic streptococci; test: Example Twelve: MIC of antibiotics with and without HEPES, streptococci; assay type: cell-based; settings: agar gel cultures, colony counts of 10^6, with vs without HEPES
Protocol: (§2) Routine agar gel cultures are inoculated with beta-hemolytic streptococci and gram […] staphylococci. The cultures were raised to colony counts of 10^6. The mean inhibitory concentration (MIC) with susceptible antibiotics was measured with and without the presence of zwitterionic piperazine (HEPES).

[7] = tested on: gram negative staphylococci; test: Example Twelve: MIC of antibiotics with and without HEPES, staphylococci; assay type: cell-based; settings: agar gel cultures, colony counts of 10^6, with vs without HEPES
Protocol: as §2

[8] = Antibiotic efficacy in vivo
[9] = Example Fifteen: patient with seizure disorder, EEG; assay type: in vivo, human; settings: 5000 mg orally (2500 mg twice a day), two weeks
Protocol: A person with a longstanding history of seizure disorder was poorly controlled and had recurrent seizures while taking Dilantin and phenobarbital. They started on 5000 mg zwitterionic piperazine orally (2500 mg twice a day) for two weeks. […] The zwitterionic piperazine (HEPES) has membrane stabilizing properties, is effective for anti-arrhythmic therapy, and is effective anti-seizure therapy.

[10] = Observations in HEPES-treated dogs; assay type: in vivo
cancer tumors = test: Macrophage infiltration of tumors; assay type: in vivo, dogs
From the text: (§3) The amphoteric zwitterion compounds may be employed as active ingredients with other active ingredients, as well as other components and carriers typically used in pharmaceutical compositions; such as, but not limited to: buffers, stabilizers, dyes, antioxidants, dispersing agents, fillers, surfactants, silicones, bulking agents, pigments, salts, human or animal (natural or synthetic) cells and cellular components, antibiotics, drugs, vitamins, amino acids, proteins, serum and various other compounds and combinations thereof in varying amounts.

[11] = tested on: giant platelets and histiocytes; test: Giant platelets and histiocytes on peripheral smear; assay type: in vivo, animals; settings: blood / peripheral smear
From the text: as §3

[12] = tested on: bone marrow / extramedullary hematopoiesis; test: Bone marrow and extramedullary hematopoiesis, in vivo tests; parameters: species or system dogs and humans
Protocol: Further, the zwitterionic compounds reduce the mean inhibitory concentration (MIC) of susceptible […] in culture (in vitro) and enhances antibiotic activity in vivo. The zwitterionic compound may be used alone or with a carrier, such as sterile water or a saline solution. Enhancement and inducement of extramedullary hematopoiesis has been found in amounts of HEPES administered in an amount of about 18-20 mg/kilograms or greater for e.g. 40 mg/kg of body weight in dogs with daily intravenous injections over a defined time period of 1-2 weeks.

[13] = ADA: data of Schwarzenbach et al. (1955); cited from earlier work
[14] = ADA: data of Schwarzenbach et al. (1955); cited from earlier work; remark: listed apart in the source
[15] = ADA: data of Schwarzenbach et al. (1955); cited from earlier work; remark: listed apart in the source
[16] = ADA: data of Schwarzenbach et al. (1955); cited from earlier work; remark: listed apart in the source
[17] = change of pKa per ° C.; cited from earlier work
[18] = cited from earlier work
[19] = intravenous and oral application

In the case of `O=S(=O)(O)CCN1CCN(CCO)CC1` [HEPES, N-2 Hydroxyethylpiperazine-N'-2 Ethane Sulfonic Acid], the “fall of baseline alkaline phosphatase levels” value (alkaline phosphatase; in excess of 100 mg/kg to 500 mg/kg or greater) is reported as “fall by a factor of two or greater”, the alkaline phosphatase measurability (alkaline phosphatase; in excess of 100 mg/kg to 500 mg/kg or greater, some cases) is reported as “not measurable by standard laboratory methods” and the “concentration at which decrease of alkaline phosphatase appears to start” value (alkaline phosphatase; mammals) is reported as “approximately 12 mg/kg”. For the same compound, the serum alkaline phosphatase [1] was “not detected by standard laboratory methods in all canines”, the “decrease in tumor volume and/or tumor activity” value (cancer; all patients with cancer) was 25%-50% and the cancer pain response (cancer; all patients with cancer pain) was “All patients with cancer pain have responded with pain reduction”. For the same compound, the “reduction in disease activity” value [2] was 25%-50%, the “reduction in disease activity” value [3] was 25%-50% and the “circulating histiocytes and giant platelets” value ([4]; all animals) was “increase in circulating histiocytes and giant platelets”. The bone marrow biopsy ([4]; all dogs) was “the bone marrow became hypercellular”, the “liver biopsy (extramedullary hematopoiesis)” value ([4]; all dogs) was “presence of megakaryocyte production consistent with induced extramedullary hematopoiesis” and the “myelin integrity / organic phosphate induced polyneuropathy” value ([5]; 8 mg/kg orally) was “reversed the effect of organic phosphate induced polyneuropathy in the patient and restored myelin integrity”. For the same compound, the sensation and proprioception ([5]; 8 mg/kg orally, end of two weeks) was “sensation and proprioception had returned”, the “sensation and proprioception after reinstatement” value ([5]; two weeks after reinstatement) was “sensation and proprioception were again restored” and the “symptoms after stopping the medicine” value ([5]; two weeks after stop) was “symptoms returned in two weeks”. The pain (Herpes Zoster; second day) was “the pain had diminished, so that other analgesia was not required”, the lesions (Herpes Zoster; seventh day) was “the lesions had healed” and the pain (Herpes Zoster; seventh day) was “no pain at all”. For the same compound, the lesions (Herpes Zoster; third day) was “the lesions had crusted and were clearly healing”, the “Total viral load determined by PCR” value (HIV) was “decreased” and the “ability to raise legs” value (HIV) was “could raise their legs without assistance”. For the same compound, the cluster determinates (HIV) was “had risen”, the sensation and proprioception (HIV) was “improved” and the “reduction of other liver enzymes” value (hepatitis B) was no less than 25%. For the same compound, the bilirubin level (hepatitis B; baseline 5.0) was 3.0, the “decrease in MIC of each antibiotic in culture (in vitro)” value [6] was “more than 10%” and the “decrease in MIC of each antibiotic in culture (in vitro)” value [7] was “more than 10%”. For the same compound, the “antibiotic efficacy in vivo” value [8] was “enhanced the antibiotic efficacy in vivo”, the EEG focal activity [9] was “significantly decreased focal activity” and the behaviour following injections ([10]; all dogs) was “all dogs became calm following injections”. The “hematomas at the injection sites” value ([10]; all treated dogs) was “rapid resolution of hematomas at the injection sites”, the diuresis ([10]; certain dosages) was “marked diuresis at certain dosages” and the vascular integrity ([10]; treated groups) was “strong evidence of improved vascular integrity”. For the same compound, the respiratory infections ([10]; while being treated, many in untreated group did) was “no animals in the treated group had any respiratory infections while being treated”, the “macrocytic invasion of tumors” value (cancer tumors; administered to mammals) was “macrocytic invasion of tumors” and the “macrophage infiltration of cancer tumors” value (cancer tumors; dogs) was “macrophage infiltration of cancer tumors in dogs”. For the same compound, the “giant platelets and histiocytes” value [11] was “production of giant platelets and histiocytes; also recorded: produces giant platelets and histiocytes in blood”, the minimal effective dose ([12]; Canis lupus familiaris, iv, dogs, daily i.v., 1-2 weeks, "or greater", read-out: amount of HEPES giving enhancement and inducement of extramedullary hematopoiesis) was 18 to 20 mg/kg and the extramedullary hematopoiesis [12, 19] was “induce extramedullary hematopoiesis in patients”. The hypercellular bone marrow [12, 19] was “induce hypercellular bone marrow”, the “Metal-Buffer Binding Constants Log KM, Mg^2+” value [13] was “Negl” and the “Metal-Buffer Binding Constants Log KM, Ca^2+” value [14] was “Negl”. The “Metal-Buffer Binding Constants Log KM, Mn^2+” value [15] was “Negl”, the “Metal-Buffer Binding Constants Log KM, Cu^2+” value [16] was “Negl” and the “αpKa /° C.” value [17] was -0.014. For the same compound, the “Saturated Solution at 0°” value [18] was 2.25 M.
